What is called melting point is the temperature, or range, at which the solid turns liquid.

We go through eleven compounds from US20210130352A1, “OGA INHIBITOR COMPOUNDS” (Janssen Pharmaceutica NV, priority 2018, published 2021).

Compound `Cc1ccc2c(ccn2C)c1Nc1nccc2c1ccn2CC(=O)N(C)C` [Co. No. 2] had a melting point of 251.73 °C.
Next, `COc1nccc(C)c1Nc1nccc2c1ccn2CC(=O)N(C)C` [Co. No. 4]: 221.78 °C; `CN(C)C(=O)Cn1ccc2c(Nc3c(Cl)cccc3Cl)nccc21` [Co. No. 5]: 215.7 °C; `Cc1cc(C(F)(F)F)cc(C(C)C)c1Nc1nccc2c1ccn2CC(=O)N(C)C` [Co. No. 6]: 228.29 °C.
For the compound `Cc1cncc(Cl)c1Nc1nccc2c1ccn2CC(=O)N1CCC1` [Co. No. 12], the melting point was 211.88 °C.
As to `Cc1cc(C(F)(F)F)cc(C)c1Nc1nccc2c1ccn2CC(=O)N(C)C` [Co. No. 18], the melting point turned out to be 214.46 °C.
Next, `Cc1cccc(C(F)(F)F)c1Nc1nccc2c1ccn2CC(=O)N(C)C` [Co. No. 21]: 187.16 °C.
As for `Cc1cccc(Cl)c1Nc1nccc2c1ccn2CC(=O)N(C)C` [Co. No. 22], the melting point came to 211.1 °C.
In turn, `CN(C)C(=O)Cn1ccc2c(Nc3c(F)cccc3Cl)nccc21` [Co. No. 23] registered a melting point of 202.75 °C.
On to `CN(C)C(=O)Cn1ccc2c(Nc3c(Cl)cccc3OC(F)(F)F)nccc21` [Co. No. 24], for which the melting point worked out at 200.76 °C.
As for `CC(C)c1cc(OC(F)(F)F)cc(Cl)c1Nc1nccc2c1ccn2CC(=O)N(C)C` [Co. No. 27], the melting point came to 69.34 °C.
